From patent US6624142B2, “Trimethyl lock based tetrapartate prodrugs” (Enzon, Inc., priority 1997, dated 2003)

System: s.c. Human Mammary Tumor (MX-1)
Test: Efficacy against s.c. MX-1 human mammary tumor in nude mice
Type: in vivo
Details: 30 mg/kg q7d × 3, iv
Experimental: Following at least one week of acclimation, tumors were established by injecting 1×10^6 (100 μl) harvested MX-1 mammary tumor cells in a single subcutaneous site, on the left axillary flank region of nude mice. The tumor injection site was observed twice weekly and measured once palpable. The tumor volume for each mouse was determined by measuring two dimensions with calipers and calculated using the formula: tumor volume ((length×width^2)/2). When tumors reached the average volume of approximately 65 mm^3, the mice were divided into their experimental groups, which consists of vehicles (20 m M Sodium PO4 in 0.6% NaCl) controls, Leu-Doxorubicin, compound 3 of Example 1a, compound 5 of Example 2a. The mice were sorted to evenly distribute tumor size, grouped into 6 mice/cage, and ear punched for permanent identification. Drugs were dosed intravenously via the tail vein once per week for three weeks (Qd7×3). Mouse weight and tumor sizes were measured at the beginning of study and twice weekly through week 5.
The overall growth of tumors was calculated as the mean tumor volume at one week following the end of the treatment. A percent treatment over control (T/C) value was also calculated when the control group's median tumor size reached approximately 800-1100 mm^3 and again at one week following treatment. The T/C value in percent is a non-quantitative indication of anti-tumor effectiveness.

For `COc1cccc2c1C(=O)c1c(O)c3c(c(O)c1C2=O)C[C@@](O)(C(=O)CO)C[C@@H]3O[C@H]1C[C@H](NC(=O)[C@@H](N)CC(C)C)[C@H](O)[C@H](C)O1` [Leu-Dox, Leucine-Doxorubicin, reference compound], the “Tumor Vol. Mean ± SEM (Day 25-28)” value (Day 25-28, mean baseline tumor volume 65 mm^3) was 860 ± 163 mm^3, the “T/C (%) 1000 mm^3” value (median tumor volume, treatment vs control, when control median reached approximately 1000 mm^3) was 56.5% and the “% Change Mean ± SEM (Day 25-28)” value (tumor volume change, Day 25-28) was 1373 ± 487%.
